Test results from ChEMBL document CHEMBL6078669, “Stereoisomers of cannabidiols and their pharmacological activities - A potentially novel direction for cannabinoids” (Bioorg Med Chem, 2025).
Values joined by “and” are separate entries in the source; they are usually repeats but may differ in a detail not shown here. Identical values can stand only once.

Tests used:
[1] = target: T1, Cannabinoid receptor 1 (Rattus norvegicus, UniProt P20272); assay: Displacement of [3H]CP-55,940 from Sabra rat brain synaptosome CB1 receptor assessed as inhibition constant incubated for 90 mins; assay type: subcellular
[2] = target: T2, Cannabinoid receptor 2 (Homo sapiens, UniProt P34972); assay: Displacement of [3H]CP-55,940 from human CB2 receptor extracted from CHO cell membrane assessed as inhibition constant incubated for 90 mins; assay type: cell membranes
[3] = target: T3, Cannabinoid receptor 1 (Homo sapiens, UniProt P21554); assay: Binding affinity to CB1 receptor (unknown origin) assessed as inhibition constant
[4] = target: T2, Cannabinoid receptor 2; assay: Binding affinity to CB2 receptor (unknown origin) assessed as inhibition constant
[5] = Selectivity ratio of Ki for CB1 receptor (unknown origin) to Ki for CB2 receptor (unknown origin)
[6] = target: T1, Cannabinoid receptor 1; assay: Displacement of [3H]HU-243 from Sabra rat brain synaptosome CB1 receptor assessed as inhibition constant incubated for 90 mins; assay type: subcellular
[7] = target: T2, Cannabinoid receptor 2; assay: Displacement of [3H]HU-243 from CB2 receptor (unknown origin) extracted from green monkey COS-7 cell membrane assessed as inhibition constant incubated for 90 mins; assay type: cell membranes
[8] = Inhibition of [14C]-arachidonoylethanolamide uptake in rat RBL-2H3 cells assessed as increase in AEA level incubated for 5 mins by scintillation counting; assay type: functional, cell-based; conditions: RBL-2H3, 5 min
[9] = target: T3, Cannabinoid receptor 1; assay: Displacement of [3H]CP-55,940 from human CB1 receptor extracted from HEK293 cell membrane assessed as inhibition constant incubated for 90 mins by liquid scintillation spectrophotometric analysis; assay type: cell membranes
[10] = target: T4, Transient receptor potential cation channel subfamily V member 1 (Homo sapiens, UniProt Q8NER1); assay: Agonist activity at human TRPV1 receptor expressed in HEK293 cells assessed as effect on [Ca2+]i preincubated with capsazepine for 30 mins followed by compound addition by Fluo-3 probe based fluorescence analysis; assay type: cell-based
[11] = target: Sodium channel protein type 9 subunit alpha (Homo sapiens, UniProt Q15858); assay: Inhibition of human Nav1.7 expressed in HEK293 cells by whole cell electrophysiology recording; assay type: cell-based
[12] = target: T5, Fatty-acid amide hydrolase 1 (Mus musculus, UniProt O08914); assay: Inhibition of FAAH-mediated [14C]-AEA hydrolysis in mouse N18TG2 cell membrane incubated for 30 mins by scintillation counting; assay type: cell membranes
T5 sequence (O08914 whole entry): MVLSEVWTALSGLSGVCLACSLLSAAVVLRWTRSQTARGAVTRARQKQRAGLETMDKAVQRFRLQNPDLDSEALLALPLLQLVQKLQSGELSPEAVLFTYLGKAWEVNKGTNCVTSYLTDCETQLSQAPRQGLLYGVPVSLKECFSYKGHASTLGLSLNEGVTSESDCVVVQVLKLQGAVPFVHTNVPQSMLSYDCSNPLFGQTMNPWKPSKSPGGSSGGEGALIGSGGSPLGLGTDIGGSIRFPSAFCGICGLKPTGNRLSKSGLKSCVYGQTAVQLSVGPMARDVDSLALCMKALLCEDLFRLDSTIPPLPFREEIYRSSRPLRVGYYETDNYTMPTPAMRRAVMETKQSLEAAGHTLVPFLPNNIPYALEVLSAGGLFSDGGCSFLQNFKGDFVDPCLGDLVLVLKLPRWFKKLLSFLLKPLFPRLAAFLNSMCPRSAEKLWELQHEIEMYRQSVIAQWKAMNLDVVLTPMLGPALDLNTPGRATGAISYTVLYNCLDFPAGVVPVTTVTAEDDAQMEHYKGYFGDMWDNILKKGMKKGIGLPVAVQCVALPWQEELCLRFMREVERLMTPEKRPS

[13] = target: T6, Transient receptor potential cation channel subfamily V member 2 (Rattus norvegicus, UniProt Q9WUD2); assay: Agonist activity at recombinant rat TRPV2 expressed in HEK293 cells assessed as increase in [Ca2+]i by Fluo-4AM based calcium assay; assay type: cell-based
T6 sequence (Q9WUD2 whole entry): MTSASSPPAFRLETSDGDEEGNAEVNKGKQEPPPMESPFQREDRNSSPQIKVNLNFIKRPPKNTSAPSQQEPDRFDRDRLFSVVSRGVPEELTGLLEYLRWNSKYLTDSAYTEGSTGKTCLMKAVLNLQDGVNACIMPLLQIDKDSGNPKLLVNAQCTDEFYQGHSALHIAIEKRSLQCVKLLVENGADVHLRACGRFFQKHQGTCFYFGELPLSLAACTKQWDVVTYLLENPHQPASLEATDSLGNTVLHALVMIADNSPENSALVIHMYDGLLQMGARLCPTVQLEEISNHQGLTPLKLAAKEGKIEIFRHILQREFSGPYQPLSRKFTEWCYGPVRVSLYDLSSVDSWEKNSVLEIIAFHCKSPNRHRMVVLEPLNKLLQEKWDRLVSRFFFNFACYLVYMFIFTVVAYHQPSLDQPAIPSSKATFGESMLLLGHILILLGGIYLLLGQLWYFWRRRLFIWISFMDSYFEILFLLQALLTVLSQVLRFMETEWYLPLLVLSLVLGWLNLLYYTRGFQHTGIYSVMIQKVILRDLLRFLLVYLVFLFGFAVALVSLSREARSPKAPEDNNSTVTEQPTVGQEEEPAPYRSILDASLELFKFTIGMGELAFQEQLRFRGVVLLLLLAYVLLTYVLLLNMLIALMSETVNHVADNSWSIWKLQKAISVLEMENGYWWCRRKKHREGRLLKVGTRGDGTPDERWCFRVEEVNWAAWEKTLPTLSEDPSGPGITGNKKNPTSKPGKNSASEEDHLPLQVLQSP

[14] = target: Transient receptor potential cation channel subfamily A member 1 (Rattus norvegicus, UniProt Q6RI86); assay: Agonist activity at recombinant rat TRPA1 expressed in HEK293 cells assessed as increase in [Ca2+]i by Fluo-4AM based calcium assay; assay type: cell-based
[15] = target: Transient receptor potential cation channel subfamily M member 8 (Rattus norvegicus, UniProt Q8R455); assay: Antagonist activity at recombinant rat TRPM8 expressed in HEK293 cells assessed as inhibition of icillin-induced intracellular calcium level preincubated with compound for 5 mins followed by icillin addition by Fluo-4AM based calcium assay; assay type: cell-based
[16] = target: T4, Transient receptor potential cation channel subfamily V member 1; assay: Agonist activity at recombinant human TRPV1 expressed in HEK293 cells assessed as increase in [Ca2+]i level by Fluo-4AM based calcium assay; assay type: cell-based
[17] = target: G-protein coupled receptor 55 (Homo sapiens, UniProt Q9Y2T6); assay: Antagonist activity at GPR55 (unknown origin)
[18] = target: T7, Equilibrative nucleoside transporter 1 (Homo sapiens, UniProt Q99808); assay: Inhibition of ENT-1 (unknown origin)
T7 sequence (Q99808 whole entry): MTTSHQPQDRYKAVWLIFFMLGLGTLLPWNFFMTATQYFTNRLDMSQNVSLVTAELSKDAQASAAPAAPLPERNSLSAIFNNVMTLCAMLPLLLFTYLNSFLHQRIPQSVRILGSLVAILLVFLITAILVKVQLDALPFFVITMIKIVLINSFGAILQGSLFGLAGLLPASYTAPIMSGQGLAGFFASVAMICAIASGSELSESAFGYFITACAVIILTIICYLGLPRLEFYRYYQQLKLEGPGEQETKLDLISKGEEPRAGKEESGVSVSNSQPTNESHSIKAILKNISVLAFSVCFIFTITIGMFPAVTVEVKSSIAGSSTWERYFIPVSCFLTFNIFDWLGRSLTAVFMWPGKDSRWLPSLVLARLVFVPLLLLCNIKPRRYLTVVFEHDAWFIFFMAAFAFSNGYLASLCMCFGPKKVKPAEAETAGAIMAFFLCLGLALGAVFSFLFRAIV

[19] = target: T8, 5-hydroxytryptamine receptor 1A (Homo sapiens, UniProt P08908); assay: Agonist activity at 5-HT1A (unknown origin); assay type: functional
T8 sequence (P08908 whole entry): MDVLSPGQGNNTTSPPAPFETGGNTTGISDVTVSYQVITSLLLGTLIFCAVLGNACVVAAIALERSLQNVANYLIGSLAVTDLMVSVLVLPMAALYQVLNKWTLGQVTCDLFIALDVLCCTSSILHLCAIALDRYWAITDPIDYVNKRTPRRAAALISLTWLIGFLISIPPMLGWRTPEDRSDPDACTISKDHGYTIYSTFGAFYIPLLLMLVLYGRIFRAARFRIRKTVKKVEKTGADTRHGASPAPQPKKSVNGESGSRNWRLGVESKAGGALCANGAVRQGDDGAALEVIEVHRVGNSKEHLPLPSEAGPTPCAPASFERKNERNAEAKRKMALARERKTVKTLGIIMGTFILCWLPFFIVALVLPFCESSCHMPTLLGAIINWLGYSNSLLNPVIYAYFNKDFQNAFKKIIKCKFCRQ

[20] = target: T9, D(2) dopamine receptor (Homo sapiens, UniProt P14416); assay: Partial agonist activity at D2-high receptor (unknown origin)
[21] = target: T9, D(2) dopamine receptor; assay: Partial agonist activity at D2-low receptor (unknown origin)
[22] = Selectivity index, ratio of Ki for Sabra rat brain synaptosome CB1 receptor to Ki for human CB2 receptor extracted from CHO cell membrane

T3 sequence (P21554 whole entry): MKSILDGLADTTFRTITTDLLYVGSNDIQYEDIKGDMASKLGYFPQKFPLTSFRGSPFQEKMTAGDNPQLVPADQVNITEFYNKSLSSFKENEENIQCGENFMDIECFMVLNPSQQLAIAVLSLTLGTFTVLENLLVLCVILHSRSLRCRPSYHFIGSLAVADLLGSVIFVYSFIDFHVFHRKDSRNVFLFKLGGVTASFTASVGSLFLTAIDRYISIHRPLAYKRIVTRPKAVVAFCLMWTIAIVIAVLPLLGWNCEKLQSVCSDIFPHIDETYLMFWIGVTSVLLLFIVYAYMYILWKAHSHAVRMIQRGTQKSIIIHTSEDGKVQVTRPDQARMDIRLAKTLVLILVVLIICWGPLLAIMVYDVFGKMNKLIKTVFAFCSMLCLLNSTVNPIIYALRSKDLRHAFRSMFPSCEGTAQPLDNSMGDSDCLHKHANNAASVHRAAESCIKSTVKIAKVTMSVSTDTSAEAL
T2 sequence (P34972 whole entry): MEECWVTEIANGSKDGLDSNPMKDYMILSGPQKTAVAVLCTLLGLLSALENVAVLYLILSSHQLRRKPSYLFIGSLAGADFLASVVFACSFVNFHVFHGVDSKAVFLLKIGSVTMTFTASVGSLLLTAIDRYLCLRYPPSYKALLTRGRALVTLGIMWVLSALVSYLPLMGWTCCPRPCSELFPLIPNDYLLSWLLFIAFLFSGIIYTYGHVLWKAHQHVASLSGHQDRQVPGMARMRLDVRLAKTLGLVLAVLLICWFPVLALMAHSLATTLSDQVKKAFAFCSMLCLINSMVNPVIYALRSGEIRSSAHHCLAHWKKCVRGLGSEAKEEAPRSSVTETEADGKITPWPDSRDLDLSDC
T1 sequence (P20272 whole entry): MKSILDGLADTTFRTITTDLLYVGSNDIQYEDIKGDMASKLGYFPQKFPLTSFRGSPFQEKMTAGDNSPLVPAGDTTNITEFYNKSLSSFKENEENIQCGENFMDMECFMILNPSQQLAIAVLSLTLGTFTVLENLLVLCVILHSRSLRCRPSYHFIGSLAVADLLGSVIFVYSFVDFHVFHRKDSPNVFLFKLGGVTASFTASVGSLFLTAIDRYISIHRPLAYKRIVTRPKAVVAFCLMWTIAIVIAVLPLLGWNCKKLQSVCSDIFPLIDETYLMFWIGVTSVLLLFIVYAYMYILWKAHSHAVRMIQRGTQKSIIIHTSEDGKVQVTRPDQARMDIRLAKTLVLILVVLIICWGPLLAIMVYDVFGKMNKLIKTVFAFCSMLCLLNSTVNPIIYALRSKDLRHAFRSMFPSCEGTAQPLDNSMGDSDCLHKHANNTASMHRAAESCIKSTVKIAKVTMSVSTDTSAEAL
T9 sequence (P14416 whole entry): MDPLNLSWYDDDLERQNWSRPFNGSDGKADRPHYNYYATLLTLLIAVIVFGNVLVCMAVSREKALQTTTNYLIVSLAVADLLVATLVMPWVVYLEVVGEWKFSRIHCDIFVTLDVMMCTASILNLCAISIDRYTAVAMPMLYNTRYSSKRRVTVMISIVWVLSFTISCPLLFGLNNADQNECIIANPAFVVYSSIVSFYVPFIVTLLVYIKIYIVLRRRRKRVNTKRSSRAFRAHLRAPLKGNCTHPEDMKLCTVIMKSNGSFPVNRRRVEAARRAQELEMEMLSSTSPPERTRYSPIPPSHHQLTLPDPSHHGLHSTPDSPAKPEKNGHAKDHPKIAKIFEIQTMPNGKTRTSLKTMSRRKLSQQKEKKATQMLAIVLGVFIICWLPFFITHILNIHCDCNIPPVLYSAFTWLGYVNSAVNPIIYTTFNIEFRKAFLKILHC
T4 sequence (Q8NER1 whole entry): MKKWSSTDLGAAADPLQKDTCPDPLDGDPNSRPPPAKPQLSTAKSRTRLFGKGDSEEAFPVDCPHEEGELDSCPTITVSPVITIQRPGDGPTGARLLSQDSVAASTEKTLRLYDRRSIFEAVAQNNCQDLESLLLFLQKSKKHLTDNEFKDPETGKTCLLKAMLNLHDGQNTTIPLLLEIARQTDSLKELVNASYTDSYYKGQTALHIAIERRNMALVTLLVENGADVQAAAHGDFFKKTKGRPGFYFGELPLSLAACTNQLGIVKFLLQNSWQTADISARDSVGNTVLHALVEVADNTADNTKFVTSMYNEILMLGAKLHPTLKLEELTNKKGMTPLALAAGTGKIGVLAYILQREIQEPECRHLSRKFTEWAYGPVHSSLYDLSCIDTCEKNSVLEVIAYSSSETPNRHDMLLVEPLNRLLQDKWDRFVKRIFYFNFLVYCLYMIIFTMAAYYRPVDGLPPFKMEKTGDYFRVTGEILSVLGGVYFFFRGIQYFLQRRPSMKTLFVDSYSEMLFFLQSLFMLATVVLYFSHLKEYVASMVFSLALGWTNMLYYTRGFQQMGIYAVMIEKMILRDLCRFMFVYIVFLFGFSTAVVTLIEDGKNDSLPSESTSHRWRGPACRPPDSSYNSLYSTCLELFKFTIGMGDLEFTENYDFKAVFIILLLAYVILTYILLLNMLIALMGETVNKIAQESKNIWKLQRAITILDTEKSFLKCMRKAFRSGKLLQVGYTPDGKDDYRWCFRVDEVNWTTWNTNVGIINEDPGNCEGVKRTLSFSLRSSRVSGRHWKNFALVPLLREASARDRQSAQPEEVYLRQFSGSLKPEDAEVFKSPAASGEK
Sequence of G-protein coupled receptor 55 (Q9Y2T6 whole entry): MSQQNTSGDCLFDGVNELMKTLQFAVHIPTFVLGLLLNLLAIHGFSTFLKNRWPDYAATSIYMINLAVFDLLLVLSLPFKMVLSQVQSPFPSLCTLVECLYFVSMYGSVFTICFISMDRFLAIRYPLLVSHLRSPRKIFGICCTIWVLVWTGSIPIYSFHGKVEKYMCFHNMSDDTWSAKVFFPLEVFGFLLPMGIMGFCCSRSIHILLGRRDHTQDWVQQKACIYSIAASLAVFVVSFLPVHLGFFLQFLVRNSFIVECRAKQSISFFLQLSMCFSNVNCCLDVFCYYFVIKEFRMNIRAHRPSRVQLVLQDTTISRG
Sequence of Sodium channel protein type 9 subunit alpha (Q15858 whole entry): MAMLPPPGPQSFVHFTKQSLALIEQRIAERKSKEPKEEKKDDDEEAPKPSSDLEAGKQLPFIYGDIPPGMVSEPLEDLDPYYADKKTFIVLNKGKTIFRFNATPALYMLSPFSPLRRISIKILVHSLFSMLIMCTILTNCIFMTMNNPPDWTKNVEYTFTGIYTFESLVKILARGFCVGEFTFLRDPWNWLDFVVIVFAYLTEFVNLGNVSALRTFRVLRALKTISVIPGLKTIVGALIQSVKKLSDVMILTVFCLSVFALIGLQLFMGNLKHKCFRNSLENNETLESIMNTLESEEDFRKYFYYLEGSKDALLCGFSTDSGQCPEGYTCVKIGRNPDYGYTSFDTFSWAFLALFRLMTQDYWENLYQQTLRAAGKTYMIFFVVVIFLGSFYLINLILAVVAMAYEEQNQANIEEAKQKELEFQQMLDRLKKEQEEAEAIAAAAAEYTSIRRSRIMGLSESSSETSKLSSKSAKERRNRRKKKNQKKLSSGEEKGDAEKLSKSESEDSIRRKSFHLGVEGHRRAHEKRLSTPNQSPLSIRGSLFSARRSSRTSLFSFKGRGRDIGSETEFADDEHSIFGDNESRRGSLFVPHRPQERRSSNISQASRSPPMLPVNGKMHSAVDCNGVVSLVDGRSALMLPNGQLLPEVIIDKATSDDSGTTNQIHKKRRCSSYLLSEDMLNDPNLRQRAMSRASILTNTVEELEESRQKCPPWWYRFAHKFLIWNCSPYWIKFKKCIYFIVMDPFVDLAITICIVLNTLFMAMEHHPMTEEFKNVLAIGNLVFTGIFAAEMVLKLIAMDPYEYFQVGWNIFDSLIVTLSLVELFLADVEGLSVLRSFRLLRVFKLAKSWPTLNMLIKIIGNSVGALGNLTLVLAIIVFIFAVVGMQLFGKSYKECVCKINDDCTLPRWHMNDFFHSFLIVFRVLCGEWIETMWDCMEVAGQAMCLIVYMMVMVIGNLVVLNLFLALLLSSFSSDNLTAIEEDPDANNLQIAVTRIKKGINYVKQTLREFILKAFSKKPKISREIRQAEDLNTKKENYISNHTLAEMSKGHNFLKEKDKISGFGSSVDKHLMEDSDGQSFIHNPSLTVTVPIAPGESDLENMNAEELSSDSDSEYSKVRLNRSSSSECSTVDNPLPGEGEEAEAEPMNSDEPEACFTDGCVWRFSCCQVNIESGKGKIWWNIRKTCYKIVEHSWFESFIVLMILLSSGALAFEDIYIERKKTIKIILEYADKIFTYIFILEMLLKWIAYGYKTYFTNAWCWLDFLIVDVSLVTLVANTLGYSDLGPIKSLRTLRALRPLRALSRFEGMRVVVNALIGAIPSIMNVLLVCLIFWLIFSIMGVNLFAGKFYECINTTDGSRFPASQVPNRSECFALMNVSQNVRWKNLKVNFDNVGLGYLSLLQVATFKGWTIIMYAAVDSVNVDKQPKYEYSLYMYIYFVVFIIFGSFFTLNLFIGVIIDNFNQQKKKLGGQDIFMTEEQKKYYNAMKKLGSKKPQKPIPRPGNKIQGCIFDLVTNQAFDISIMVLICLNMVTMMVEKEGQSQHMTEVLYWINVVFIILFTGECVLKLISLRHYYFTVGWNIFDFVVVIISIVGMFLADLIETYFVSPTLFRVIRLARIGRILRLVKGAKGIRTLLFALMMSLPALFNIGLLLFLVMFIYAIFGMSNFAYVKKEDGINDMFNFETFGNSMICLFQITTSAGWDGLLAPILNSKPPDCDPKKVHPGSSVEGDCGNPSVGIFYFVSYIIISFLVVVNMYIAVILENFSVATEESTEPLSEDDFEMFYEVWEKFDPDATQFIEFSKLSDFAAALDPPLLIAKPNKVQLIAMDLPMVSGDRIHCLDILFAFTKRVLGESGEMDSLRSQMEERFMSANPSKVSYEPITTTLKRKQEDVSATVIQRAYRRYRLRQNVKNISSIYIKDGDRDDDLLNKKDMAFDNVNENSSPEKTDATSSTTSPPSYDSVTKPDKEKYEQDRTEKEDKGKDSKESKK

Structure (SMILES): CCCCCc1cc(O)c([C@@H]2C=C(CO)CC[C@H]2C(C)C)c(O)c1
- Ki [1]: > 1000 nM
- Ki [2]: > 1000 nM

Structure (SMILES): CCCCCCC(C)(C)c1cc(O)c(-c2c(CO)cccc2C(C)C)c(OC)c1
- Ki [3]: > 1000 nM
- Ki [4]: 0.64 nM and 0.28 nM
- Ratio Ki [5]: 17

Structure (SMILES): C=C(C)[C@@H]1CCC(C)=C[C@H]1c1c(O)cc(C(C)(C)CCCCCC)cc1O
- Ki [6]: > 10000 nM
- Ki [7]: 1800 nM
- IC50 [8]: 14000 nM

Structure (SMILES): C=C(C)[C@@H]1CCC(C)=C[C@H]1c1c(OC)cc(C(C)(C)CCCCCC)cc1OC
- Ki [6]: > 1000 nM
- Ki [7]: > 1000 nM

Structure (SMILES): C=C(C)[C@@H]1CCC(C(=O)O)=C[C@H]1c1c(O)cc(C(C)(C)CCCCCC)cc1O
- Ki [3]: > 1000 nM
- Ki [4]: > 1000 nM

Structure (SMILES): C=C(C)[C@H]1CCC(C)=C[C@@H]1c1c(O)cc(C(C)(C)CCCCCC)cc1O
- Ki [6]: 17.4 nM
- Ki [7]: 211 nM
- IC50 [8]: 10000 nM

Structure (SMILES): C=C(C)[C@@H]1CCC(CO)=C[C@H]1c1c(O)cc(C(C)(C)CCCCCC)cc1O
- Ki [6]: ≥ 4000 nM
- Ki [7]: 671 nM
- IC50 [8]: 12500 nM

Structure (SMILES): C=C(C)[C@H]1CCC(C)=C[C@@H]1c1c(OC)cc(C(C)(C)CCCCCC)cc1OC
- Ki [6]: > 1000 nM
- Ki [7]: > 1000 nM

Structure (SMILES): C=C(C)[C@H]1CCC(CO)=C[C@@H]1c1c(O)cc(C(C)(C)CCCCCC)cc1O
- Ki [6]: 2.5 nM
- Ki [7]: 44 nM
- IC50 [8]: 7000 nM

Structure (SMILES): C=C(C)[C@H]1CCC(C)=C[C@@H]1c1c(O)cc(CCCCC)c(C(=O)OCCO)c1O
- Ki [9]: 259 nM

Structure (SMILES): C=C(C)[C@@H]1CCC(C)=C[C@H]1c1c(O)cc(CCCCC)cc1O [CANNABIDIOL]
- EC50 [10]: 3200 nM
- IC50 [8]: 22000 nM
- IC50 [11]: 1820 nM
- IC50 [12]: 27500 nM
- EC50 [13]: 1250 nM
- EC50 [14]: 110 nM
- IC50 [15]: 60 nM
- EC50 [16]: 1000 nM
- IC50 [17]: 445 nM
- Ki [18]: 250 nM
- EC50 [19]: 16000 nM
- Ki [20]: 0.066 nM
- Ki [21]: 2800 nM

Structure (SMILES): CCCCCCC(C)(C)c1cc(OC)c([C@@H]2C=C(CO)[C@@H]3C[C@H]2C3(C)C)c(OC)c1 [ONTERNABEZ]
- Ki [3]: > 1000 nM

Structure (SMILES): COc1cc(C(C)(C)CCCCCCN=C=S)cc(OC)c1[C@@H]1C=C(CO)[C@@H]2C[C@H]1C2(C)C
- Ki [3]: > 1000 nM
- Ki [4]: 121 nM

Structure (SMILES): CCCCCc1cc(O)c([C@H]2C=C(CO)CC[C@@H]2C(C)C)c(O)c1
- Ki [1]: 76.7 nM
- Ki [2]: 12.1 nM
- Ratio Ki [22]: 6.3
